In patent US10738061B2, “Inhibitors of RAD52 recombination protein and methods using same” (Drexel University, priority 2015, dated 2020):

Experiments:
RAD52 [1] = target: T1, RAD52 (Homo sapiens, UniProt P43351); assay: D-loop formation (DNA pairing) by RAD52; type: biochemical; settings: three independent repeats, read-out: Inhibition of DNA pairing (D-loop formation), IC50
T1 construct: made in house
T1 sequence (P43351 1-418): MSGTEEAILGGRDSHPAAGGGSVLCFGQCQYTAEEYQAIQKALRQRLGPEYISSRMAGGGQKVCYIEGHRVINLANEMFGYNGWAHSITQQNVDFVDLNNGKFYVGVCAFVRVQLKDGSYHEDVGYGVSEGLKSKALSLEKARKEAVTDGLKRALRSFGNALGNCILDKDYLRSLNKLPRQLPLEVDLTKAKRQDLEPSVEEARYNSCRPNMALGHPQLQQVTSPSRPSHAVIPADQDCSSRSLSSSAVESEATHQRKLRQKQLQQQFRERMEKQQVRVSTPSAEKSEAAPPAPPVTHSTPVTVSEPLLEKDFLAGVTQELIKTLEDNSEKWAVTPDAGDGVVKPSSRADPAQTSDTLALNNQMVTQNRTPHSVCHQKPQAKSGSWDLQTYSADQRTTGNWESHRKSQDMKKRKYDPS
Procedure: Cisplatin was purchased from Sigma-Aldrich. Human RAD52 and RAD51 were purified as described (Bugreev et al., 2005, Mol. Cell. Biol. 33, 387-395). The oligonucleotides (Table 2) were purchased from IDT, Inc and further purified by electrophoresis (Rossi et al., 2010, Methods 51, 336-346). Supercoiled pUC19 plasmid DNA was purified using Qiagen kits. All DNA concentrations are expressed as moles of nucleotide.
To form RAD52 nucleoprotein complexes, RAD52 (0.45 μM) was incubated with a ^32P-labeled ssDNA (oligo 90/SEQ ID NO: 4) (3 μM, nt) in buffer containing 25 mM Tris-Acetate, pH 7.5, 100 μg·ml-1 BSA, 0.3 mM magnesium acetate, and 2 mM DTT at 37° C. for 15 min. To form RAD51 nucleoprotein filament, RAD51 (1 μM) was incubated with ^32P-labeled ssDNA (3 μM, nt) in buffer containing 25 mM Tris-Acetate, pH 7.5, 100 μg·ml-1 BSA, 1 mM calcium chloride, 1 mM ATP and 2 mM DTT for 15 min at 37° C. Then inhibitors were added to both reactions and incubation continued for 15 min at 37° C. D-Loop formation was initiated by addition of supercoiled pUC19 DNA (50 μM, nucleotides) and was carried out 15 min at 37° C. The reactions were stopped and deproteinized by the addition of 1.5% SDS and proteinase K (0.8 mg/ml) for 15 min at 37° C., mixed with a 0.10 volume of loading buffer (70% glycerol, 0.1% bromphenol blue), and analyzed by electrophoresis in 1% agarose gels in TAE buffer (40 mM Tris acetate, pH 8.3, and 1 mM EDTA) at 5 V/cm for 3 h. The gels were dried on DEAE-81 paper (Whatman) and the yield of D-loops quantified using a Storm 840 PhosphorImager and ImageQuant 5.2 (GE Healthcare). The D-loop yield was expressed as a percentage of plasmid DNA carrying D-loops relative to the total plasmid DNA.
IC50 values were calculated using GraphPad Prism V5.0 software. The data were obtained from three independent repeats of experiments.
The inhibitory effect of the 70 selected compounds were tested using the D-loop assay, in which RAD52 promotes pairing between 32P-labeled ssDNA and homologous supercoiled plasmid pUC19 DNA (FIG. 1D); the product of the reaction, D-loops, were analyzed by electrophoresis in 1% agarose gels. […] Then, the effects of each of the 17 compounds on RAD52-dependent D-loop formation were measured in a concentration dependent manner.

[2] = test system: BRCA1/2-deficient cell lines; assay: Growth of BRCA1/2-deficient cell lines (summary over tested lines); type: cell-based, Human
Procedure: (§1) BxPC3 cells were kept in RPMI 1640 (ATCC) media supplemented with 10% FBS (Gibco). Capan-1/BxPC3 Capan-1 cells were kept in IMDM (ATCC) media containing 20% FBS (GIBCO). […] cells were kept in 48.5% RPMI1640 (ATCC), 48.5% MEGM (Clonetics/Lonza, MEGM kit, CC-3150) and 3% FBS (GIBCO) respectively. Cells in log-phase were harvested and 100 μl cell suspensions were replated in a 96-well plate with a final density of 4000 cells/well. After overnight growth, cells were treated with indicated concentrations of compounds. Media containing the invariant concentration of compounds were refreshed every 3 days until cells were finally lysed by 30 μl/well of Promega CellTiter-Glo reagents and read on a Promega GloMax 96 reader on day 10 (9 days exposure).
as §1, with “(Gibco);” for “(Gibco). Capan-1/BxPC3”, “(GIBCO);” for “(GIBCO).”, “exposure). Promega CellTiter-Glo protocol is available on the web: www dot promega dot com/resources/protocols/technical-bulletins/0/celltiter-glo-luminescent-cell-viability-assay-protocol/” for “exposure).”
MDA-MB-436 cells were cultured in RPMI+10% FBS. BRCA-proficient and BRCA-deficient cells were plated on day 0 in triplicate at 5,000 cells/well. […] Cells were counted on day 4 on a hemocytometer, using Trypan Blue exclusion, and immediately were plated in a clonogenic assay at a density of 500 cells/well in a 6 well plate, in RPMI+10% FBS. […]

RAD52 [3] = target: T1, RAD52; assay: Fluorescence-quenching assay for RAD52 ssDNA annealing (HTS); type: biochemical
Procedure: Tailed dsDNA substrate was prepared by thermal annealing of ssDNA oligonucleotides 337-F and 1337-BHQ1 (SEQ ID NO: 2) containing Fluorescein and Black Hole Quencher 1 residues at the 5′ and 3′ end, respectively. […] The fluorescence intensity was measured in a 3-mm quartz cuvette (Starna Cells) using a FluoroMax-3 (HORIBA) fluorimeter with 492 nm excitation wavelength and 520 nm emission wavelength at 30° C. for at least 2000 s.
The HTS was performed using the 8 channel BioRAPTR 1536 (Beckman) for reagent dispensing. […] Wells containing no RAD52 enzyme were used to as positive control, and data were analyzed using Genedata.
A fluorescence-quenching assay was used to screen for inhibitors of RAD52 ssDNA annealing activity (FIGS. 1A-1E). […] Annealing promoted by RAD52 between ssDNA and tdsDNA led to displacement of the FLU-carrying DNA strand from the tdsDNA and in an increase in fluorescence due to secession of fluorescence quenching by the BHQ1 group (FIG. 1B).
The fluorescence-quenching assay was optimized for 1,536 well plates (Z′ Avg=0,64). […] The hits were further analyzed for a concentration dependence in inhibiting of RAD52 and by testing their DNA binding affinity using the acridine orange assay.

[4] = test system: MDA-MB-436 (BRCA1-) and MDA-MB-436 (BRCA1+) cells; assay: Clonogenic survival assay; type: cell-based, Human
Procedure: MDA-MB-436 cells were cultured in RPMI+10% FBS. BRCA-proficient and BRCA-deficient cells were plated on day 0 in triplicate at 5,000 cells/well. […] Cells were counted on day 4 on a hemocytometer, using Trypan Blue exclusion, and immediately were plated in a clonogenic assay at a density of 500 cells/well in a 6 well plate, in RPMI+10% FBS. After two weeks, the colonies were fixed/stained with 0.05% of 10 mg/ml ethidium bromide in 50% ethanol and visualized with Alphaimager gel imager (Alpha Innotech).
Likewise, the effects of RAD52 inhibitors on the growth of BRCA1-deficient (UWB1.289 BRCA1^−) and BRCA1-proficient (UWB1.289 BRCA^+) cells were tested. 7 out 14 tested RAD52 inhibitors preferentially suppress the growth of BRCA1-deficient cells. Importantly, these 7 compounds included the 5 compounds that inhibited the growth of BRCA2-deficient cells (FIGS. 3E-3H). The effects of the 14 RAD52 inhibitors were tested on the survival of another BRCA1-deficient cells, and MDA-MB-436 cells. […] BRCA1-deficiency in these cells is due to constitutive downregulation of this protein.

[5] = test system: Capan-1 (BRCA2-) and BxPC3 (BRCA2+) cells; assay: Luminescent cell viability assay, BRCA2-deficient versus proficient cells; type: cell-based, Human; settings: 9 days exposure
Procedure: as §1
(§2) BxPC3 cells were kept in RPMI 1640 (ATCC) media supplemented with 10% FBS (Gibco); Capan-1 cells were kept in IMDM (ATCC) media containing 20% FBS (GIBCO); UWB1.298 and UWB1.298 (BRCA1+) cells were kept in 48.5% RPMI1640 (ATCC), 48.5% MEGM (Clonetics/Lonza, MEGM kit, CC-3150) and 3% FBS (GIBCO) respectively. […] Media containing the invariant concentration of compounds were refreshed every 3 days until cells were finally lysed by 30 μl/well of Promega CellTiter-Glo reagents and read on a Promega GloMax 96 reader on day 10 (9 days exposure). […]

[6] = test system: UWB1.289 (BRCA1-) and UWB1.289 (+BRCA1) cells; assay: Luminescent cell viability assay, BRCA1-deficient versus proficient cells; type: cell-based, Human; settings: 9 days exposure
Procedure: as §1, §2

| SMILES | IC50 (RAD52 [1]) | preferential inhibition of BRCA1/2-deficient cell lines (summary) [2] | IC50 (RAD52 [3]) | effect on survival of BRCA1-deficient MDA-MB-436 cells versus MDA-MB-436 (BRCA1+) [4] | effect on growth of BRCA2-deficient Capan-1 cells versus BxPC3 [5] | effect on growth of BRCA1-deficient UWB1.289 cells versus UWB1.289 (+BRCA1) [6] |
| --- | --- | --- | --- | --- | --- | --- |
| COc1ccc(OC)c(Nc2nc(NCCO)c3ccccc3n2)c1 [D-I05, 2-((2-((2,5-dimethoxyphenyl)amino)quinazolin-4-yl)amino)ethan-1-ol] | 8.8 ± 0.42 µM | preferentially inhibited at least two BRCA1/2-deficient cell lines | 4.3 µM |  |  |  |
| CCN(CC)CCCN(Cc1cc2cc3c(cc2[nH]c1=O)OCO3)C(=S)NCCCN(C)C [D-A13, 1-(3-(diethylamino)propyl)-3-(3-(dimethylamino)propyl)-1-((6-oxo-5,6-dihydro-[1,3]dioxolo[4,5-g]quinolin-7-yl)methyl)thiourea] | 13.6 ± 0.64 µM |  | 5.2 µM |  |  |  |
| COc1ccc(-c2nc(C(=O)NCCCN3CCOCC3)cc3c2[nH]c2ccccc23)cc1OC [D-A19, 1-(3,4-dimethoxyphenyl)-N-(3-morpholinopropyl)-9H-pyrido[3,4-b]indole-3-carboxamide] | 7.2 ± 0.28 µM |  | 4.8 µM |  |  |  |
| Cc1ccc(C(=O)c2oc3ccc(Cl)cc3c2NC(=O)CN2CCN(C)CC2)cc1 [D-C17, N-(5-chloro-2-(4-methylbenzoyl)benzofuran-3-yl)-2-(4-methylpiperazin-1-yl)acetamide] | 17.6 ± 0.78 µM |  | 6 µM |  |  |  |
| COc1ccccc1Nc1nc(NCCCO)c2ccccc2n1 [D-K17, 3-((2-((2-methoxyphenyl)amino)quina-zolin-4-yl)amino)propan-1-ol] | 4.8 ± 0.85 µM | preferentially inhibited at least two BRCA1/2-deficient cell lines | 2.9 µM |  |  |  |
| CCCCN(CC)CCNC(=O)c1cc2c(-c3ccc(Cl)cc3)nn(C)c2s1 [D-I09, N-(2-(butyl(ethyl)amino)ethyl)-3-(4-chlorophenyl)-1-methyl-1H-thieno[2,3-c]pyrazole-5-carboxamide] | 10.6 ± 1.4 µM |  | 6.8 µM |  |  |  |
| CCCCN(CC)CCCNC(=S)Nc1ccc2nc(N3CCN(C)CC3)cc(C)c2c1 [D-G09, 1-(3-(butyl(ethyl)amino)propyl)-3-(4-methyl-2-(4-methylpiperazin-1-yl)quinolin-6-yl)thiourea] | 14.8 ± 2.47 µM |  | 2 µM | showed an inhibitory effect | showed an inhibitory effect | showed an inhibitory effect |
| CN1CCN(CCCNC(=O)c2cc3c(-c4ccc(Cl)cc4)nn(C)c3s2)CC1 [D-I07, 3-(4-chlorophenyl)-1-methyl-N-(3-(4-methylpiperazin-1-yl)propyl)-1H-thieno[2,3-c]pyrazole-5-carboxamide] | 2.7 ± 0.35 µM |  | 2 µM |  |  |  |
| Cc1cc(N2CCN(C)CC2)nc2ccc(NC(=S)NCCCN3CCN(C)CC3)cc12 [D-I01, 1-(4-methyl-2-(4-methylpiperazin-1-yl)quinolin-6-yl)-3-(3-(4-methylpiperazin-1-yl)propyl)thiourea] | 15.4 ± 0.57 µM |  | 3.6 µM |  |  |  |
| Cc1c(C(=O)Nc2ccc(S(=O)(=O)N(C)C3CCN(C)CC3)cc2)oc2c(Cl)cccc12 [D-A21, 7-chloro-3-methyl-N-(4-(N-methyl-N-(1-methylpiperidin-4-yl)sulfamoyl)phenyl) benzofuran-2-carboxamide] | 16.2 ± 0.42 µM |  | 9.8 µM |  |  |  |
| CCN1CCN(CCCNC(=S)Nc2ccc3nc(N(C)CCN)cc(C)c3c2)CC1 [D-E05, 1-(2-((2-aminoethyl)(methyl)amino)-4-methylquinolin-6-yl)-3-(3-(4-ethylpiperazin-1-yl)propyl)thiourea] | 11.3 ± 0.35 µM |  | 1.7 µM |  |  |  |
| Cn1nc(-c2ccc(Cl)cc2)c2cc(C(=O)NCCCN3CCCC3)sc21 [D-I19, 3-(4-chlorophenyl)-1-methyl-N-(3-(pyrrolidin-1-yl)propyl)-1H-thieno[2,3-c]pyrazole-5-carboxamide] | 4.1 ± 0.14 µM |  | 3.5 µM |  |  |  |
| CCCN(CCC)CCCNC(=S)Nc1ccc2nc(N3CCN(C)CC3)cc(C)c2c1 [D-G11, 1-(3-(dipropylamino)propyl)-3-(4-methyl-2-(4-methylpiperazin-1-yl)quinolin-6-yl)thiourea] | 8.9 ± 1.6 µM |  | 6 µM |  | showed activity | showed activity |
| Cc1ccc(-c2nc(C(=O)NCCCN3CCOCC3)cc3c2[nH]c2ccccc23)cc1 [D-C19, N-(3-morpholinopropyl)-1-(p-tolyl)-9H-pyrid[3,4-b]indole-3-carboxamide] | 4.3 ± 0.35 µM |  | 2 µM |  |  |  |
| Cn1nc(-c2ccc(Cl)cc2)c2cc(C(=O)NCCCN3CCCCCC3)sc21 [D-I11, N-(3-(azepan-1-yl)propyl)-3-(4-chlorophenyl)-1-methyl-1H-thieno[2,3-c]pyrazole-5-carboxamide] | 6.7 ± 0.78 µM |  | 4.1 µM |  |  |  |
